# Source: publication PMC9181188 (International Journal of Molecular Sciences, 2022)
# Tested on: M. tuberculosis Spec. 210 (Multidrug-Resistant)
# Experiment: microbe, parasite or virus in culture
# Format: cell-based, Mycobacterium tuberculosis
# Conditions: Mycobacterium tuberculosis, 336 h, read-out: MIC M. tuberculosis Spec. 210 (Multidrug-Resistant)
row,SMILES,MIC [µg/mL]
1,"CC[C@@H](CO)NCCN[C@@H](CC)CO [Ethambutol (EMB), Ethambutol, reference compound]",32
2,"CCCCCCCC(=O)N1CCCC2CN(c3c(F)cc4c(=O)c(C(=O)O)cn(C5CC5)c4c3OC)CC21 (stereo not drawn) [Compound 15m, 1-Cyclopropyl-6-fluoro-8-methoxy-7-(1-octanoyl-octahydro-pyrrolo[3,4-b]pyridin-6-yl)-4-oxo-1,4-dihydro-quinoline-3-carboxylic acid]",128
3,"CCCCCCCC/C=C\CCCCCCCC(=O)N1CCCC2CN(c3c(F)cc4c(=O)c(C(=O)O)cn(C5CC5)c4c3OC)CC21 (stereo not drawn) [Compound 4m, 1-Cyclopropyl-6-fluoro-8-methoxy-7-{1-(Z)-octadec-9-enoyl-octahydro-pyrrolo[3,4-b]pyridin-6-yl}-4-oxo-1,4-dihydro-quinoline-3-carboxylic acid]",> 512
4,"CCCCCCCC/C=C/CCCCCCCC(=O)N1CCCC2CN(c3c(F)cc4c(=O)c(C(=O)O)cn(C5CC5)c4c3OC)CC21 (stereo not drawn) [Compound 5m, 1-Cyclopropyl-6-fluoro-8-methoxy-7-{1-(E)-octadec-9-enoyl-octahydro-pyrrolo[3,4-b]pyridin-6-yl}-4-oxo-1,4-dihydro-quinoline-3-carboxylic acid]",256
5,"CCCCCCCCCCCCCCCC(=O)N1CCC[C@H]2CN(c3c(F)cc4c(=O)c(C(=O)O)cn(C5CC5)c4c3OC)C[C@H]21 [Compound 9m, 1-Cyclopropyl-6-fluoro-7-(1-hexadecanoyl-octahydro-pyrrolo[3,4-b]pyridin-6-yl)-8-methox-4-oxo-1,4-dihydro-quinoline-3-carboxylic acid]",> 512
6,"CC/C=C\C/C=C\C/C=C\CCCCCCCC(=O)N1CCCC2CN(c3c(F)cc4c(=O)c(C(=O)O)cn(C5CC5)c4c3OC)CC21 (stereo not drawn) [Compound 6m, 1-Cyclopropyl-6-fluoro-8-methoxy-7-{1-(9Z,12Z,15Z)-octadeca-9,12,15-trienoyl-octahydro-pyrrolo[3,4-b]pyridin-6-yl}-4-oxo-1,4-dihydro-quinoline-3-carboxylic acid]",256
7,"[H]/N=C(/N)N[C@H]1[C@H](O)[C@@H](O)[C@H](O[C@@H]2O[C@@H](C)[C@](O)(C=O)[C@H]2O[C@@H]2O[C@@H](CO)[C@H](O)[C@@H](O)[C@@H]2NC)[C@@H](N/C(N)=N\[H])[C@@H]1O [Streptomycin (SM), Streptomycin, reference compound]",16
8,"NNC(=O)c1ccncc1 [Isoniazid (INH), Isoniazid, reference compound]",16
9,"COc1c(N2CC3CCCN(C(=O)/C=C(\C)CCC=C(C)C)C3C2)c(F)cc2c(=O)c(C(=O)O)cn(C3CC3)c12 (stereo not drawn) [Compound 3m, 1-Cyclopropyl-7-{1-(2E)-(3,7-dimethyl-octa-2,6-dienoyl)-octahydro-pyrrolo[3,4-b]pyridin-6-yl}-6-fluoro-8-methoxy-4-oxo-1,4-dihydro-quinoline-3-carboxylic acid]",128
10,"C/C=C/C(=O)N1CCCC2CN(c3c(F)cc4c(=O)c(C(=O)O)cn(C5CC5)c4c3OC)CC21 (stereo not drawn) [Compound 1m, 7-{1-(E)-But-2-enoyl-octahydro-pyrrolo[3,4-b]pyridin-6-yl}-1-cyclopropyl-6-fluoro-8-methoxy-4-oxo-1,4-dihydro-quinoline-3-carboxylic acid]",64
11,"CCCCC/C=C\C/C=C\C/C=C\C/C=C\CCCC(=O)N1CCCC2CN(c3c(F)cc4c(=O)c(C(=O)O)cn(C5CC5)c4c3OC)CC21 (stereo not drawn) [Compound 13m, 1-Cyclopropyl-6-fluoro-7-{1-(5Z,8Z,11Z,14Z)-icosa-5,8,11,14-tetraenoyl-octahydro-pyrrolo[3,4-b]pyridin-6-yl}-8-methoxy-4-oxo-1,4-dihydro-quinoline-3-carboxylic acid]",2
12,"CC/C=C\C/C=C\C/C=C\C/C=C\C/C=C\C/C=C\CCC(=O)N1CCCC2CN(c3c(F)cc4c(=O)c(C(=O)O)cn(C5CC5)c4c3OC)CC21 (stereo not drawn) [Compound 8m, 1-Cyclopropyl-7-{1-(4Z,7Z,10Z,13Z,16Z,19Z)-docosa-4,7,10,13,16,19-hexaenoyl-octahydro-pyrrolo[3,4-b]pyridin-6-yl}-6-fluoro-8-methoxy-4-oxo-1,4-dihydro-quinoline-3-carboxylic acid]",2
13,"CO[C@H]1/C=C/O[C@@]2(C)Oc3c(C)c(O)c4c(O)c(c(/C=N/N5CCN(C)CC5)c(O)c4c3C2=O)NC(=O)/C(C)=C\C=C\[C@H](C)[C@H](O)[C@@H](C)[C@@H](O)[C@@H](C)[C@H](OC(C)=O)[C@@H]1C [Rifampicin (RMP), Rifampicin, reference compound]",32
14,"CCCCC/C=C\C/C=C\CCCCCCCC(=O)N1CCCC2CN(c3c(F)cc4c(=O)c(C(=O)O)cn(C5CC5)c4c3OC)CC21 (stereo not drawn) [Compound 11m, 1-Cyclopropyl-6-fluoro-8-methoxy-7-{1-(9Z,12Z)-octadeca-9,12-dienoyl-octahydropyrrolo-[3,4-b]pyridin-6-yl)-4-oxo-1,4-dihydro-quinoline-3-carboxylic acid]",256
15,"CCCCCCCCCCCCCCCCCC(=O)N1CCCC2CN(c3c(F)cc4c(=O)c(C(=O)O)cn(C5CC5)c4c3OC)CC21 (stereo not drawn) [Compound 16m, 1-Cyclopropyl-6-fluoro-8-methoxy-7-(1-octadecanoyl-octahydro-pyrrolo[3,4-b]pyridin-6-yl)-4-oxo-1,4-dihydro-quinoline-3-carboxylic acid]",> 512
16,"CCCCCCCC/C=C\CCCCCCCCCCCC(=O)N1CCCC2CN(c3c(F)cc4c(=O)c(C(=O)O)cn(C5CC5)c4c3OC)CC21 (stereo not drawn) [Compound 7m, 1-Cyclopropyl-7-{1-(Z)-docos-13-enoyl-octahydro-pyrrolo[3,4-b]pyridin-6-yl}-6-fluoro-8-methoxy-4-oxo-1,4-dihydro-quinoline-3-carboxylic acid]",> 512

# Same assay, conditions: multidrug-resistant Spec. 210, versus INH, RMP, SM, EMB
row,SMILES,fold higher activity than referential tuberculostatics
1,"CCCCC/C=C\C/C=C\C/C=C\C/C=C\CCCC(=O)N1CCCC2CN(c3c(F)cc4c(=O)c(C(=O)O)cn(C5CC5)c4c3OC)CC21 (stereo not drawn) [Compound 13m, 1-Cyclopropyl-6-fluoro-7-{1-(5Z,8Z,11Z,14Z)-icosa-5,8,11,14-tetraenoyl-octahydro-pyrrolo[3,4-b]pyridin-6-yl}-8-methoxy-4-oxo-1,4-dihydro-quinoline-3-carboxylic acid]",8–16 fold
2,"CC/C=C\C/C=C\C/C=C\C/C=C\C/C=C\C/C=C\CCC(=O)N1CCCC2CN(c3c(F)cc4c(=O)c(C(=O)O)cn(C5CC5)c4c3OC)CC21 (stereo not drawn) [Compound 8m, 1-Cyclopropyl-7-{1-(4Z,7Z,10Z,13Z,16Z,19Z)-docosa-4,7,10,13,16,19-hexaenoyl-octahydro-pyrrolo[3,4-b]pyridin-6-yl}-6-fluoro-8-methoxy-4-oxo-1,4-dihydro-quinoline-3-carboxylic acid]",8–16 fold
